Measured values from patent publication US11466006B2, “Dual selective PI3 delta and gamma kinase inhibitors” (Rhizen Pharmaceuticals SA, priority 2013, dated 2022).

Assays:
[1] = tested on: male guinea pigs; assay: Ovalbumin induced pulmonary eosinophilia in male guinea pigs; format: in vivo, guinea pig; conditions: sensitized guinea pigs, 0.3, 1, 3 mg/kg oral
Experimental: After the quarantine period, 0.3 mL of blood samples was collected from orbital vein by retro-orbital plexus method from each individual animal and analysed on a cell analyser (ADVIA 2120, Siemens). Based on their total cell count, guinea pigs were randomized and divided into various groups. Ear pinna was marked with an indelible marking pen for identification. On day 0, weights were recorded and animals were sensitized with 50 μg of Ovalbumin (OVA) and 10 mg of alum solution (1 mL) intraperitoneally. On day 7 and day 14, the above sensitization protocol was repeated. […] On day 19, 20, and 21, after the treatment with test compound by oral gavage, 30 mins later animals were exposed to 0.5% w/v, 0.5% and 1% Ovalbumin challenge respectively. Control & sham group animals were treated with 0.5% w/v methyl cellulose (vehicle). Sham control groups were sensitized with 10 mg of alum on day 0, 7 & 14 and exposed to saline solution (SAL) with the same nebulization rate on day 19. 20 and 21. Twenty hours after last OVA challenge, airway hyperresponsiveness was measured by whole body plethysmograph against cumulative doses of methacholine challenge (75, 100, 125 & 150 μg/ml), after measuring the airway response, blood samples and BAL fluid was collected. Samples were analysed for total cell count by using neubuear chamber under microscope and differential leukocyte count was done manually.

[2] = biological target: T1, Pi3K β (Homo sapiens, UniProt P42338); assay: Fluorescent (HTRF) determination of PI3 kinase enzyme activity, beta isoform; format: biochemical; conditions: Table 1, HTRF
T1 construct: purchased Millipore (assay kit)
Excerpt: (§1) Phosphoinositide 3 kinases (PI3K) belong to a class of lipid kinases that play a critical role in the regulation of several key cellular processes. The PI3K are capable of phosphorylating the 3-hydroxy position of phosphoinositols thereby generating second messengers involved in downstream signalling events. The homogenous time resolved fluorescence (HTRF) assay allows detection of 3,4,5-triphosphate (PIP3) formed as a result of phosphorylation of phosphotidylinositol 4,5-biphosphate (PIP2) by PI3K isoforms such as α, β, γ or δ.
(§2) PI3K isoform activity for α, β, γ or δ was determined using a PI3K human HTRF™ Assay Kit (Millipore, Billerica, Mass.) with modifications. All incubations were carried out at room temperature. Briefly, 0.5 μl of 40× inhibitor (in 100% DMSO) or 100% DMSO were added to each well of a 384-well white plate (Greiner Bio-One, Monroe, N.C.) containing 14.5 μl 1× reaction buffer /PIP2 (10 mM MgCl2, 5 mM DTT, 1.38 μM PIP2) mix with or without enzyme, followed by 5 μl/well of 400 μM ATP and incubated for an additional 30 minutes. Reaction was terminated by adding 5 μl/well stop solution (Millipore, Billerica, Mass.). […] HRTF ratio was measured on a microplate reader (BMG Labtech., Germany) at an excitation wavelength of 337 nm and emission wavelengths of 665 and 615 nm with an integration time of 400 msec counting delay of 50 msec.

[3] = biological target: Pi3K γ (Homo sapiens, UniProt P48736); assay: Fluorescent (HTRF) determination of PI3 kinase enzyme activity, gamma isoform; format: biochemical; design: purchased Millipore (assay kit); conditions: Table 1, HTRF; read-out: IC50 (nM) Pi3K γ
Excerpt: as §1, §2

[4] = tested on: caspase-3 activity; assay: Apoptosis in leukemic cell lines (in-situ Caspase 3 kit); format: cell-based; conditions: MOLT-4, Jurkat, CCRF-CEM, Hut-78 & HuT-102; 24 hrs
Experimental: Apoptosis in leukemic cells was determined using an in-situ Caspase 3 kit (Millipore, US) as outlined below: • Seed leukemic cells—at a density of 1×10^6 cells/well in a 6 well plate • Add test compound/DMSO at desired concentrations • Incubate the plate for 24 hrs at 37° C. in 5% CO2 incubator • Collect cells in a 2 ml centrifuge tube • Add 1.6 μL of freshly prepared 5× FLICA reagent and mix cells by slightly flicking the tubes • Incubate tubes for 1 hour at 37° C. under 5% CO2 • Add 2 ml of 1× wash buffer to each tube and mix • Centrifuge cells at <400× g for 5 minutes at room temperature. • Carefully remove and discard supernatant, and gently vortex cell pellet to disrupt any cell-to-cell clumping. • Resuspend cell pellet in 300 ul of 1× wash buffer • Place 100 μL of each cell suspension into each of two wells of a black microtiter plate. Avoid creation of bubbles. • Read […] of each microwell using an excitation wavelength of 490 nm and an emission wavelength of 520 nm • Percent increase in caspase-3 activity manifested by an increase in fluorescence compared to the control blank is to be calculated.

[5] = biological target: PI3Kδ (Homo sapiens, UniProt O00329); assay: Fluorescent (HTRF) determination of PI3 kinase enzyme activity, delta isoform; format: biochemical; design: purchased Millipore (assay kit); conditions: Table 1, HTRF; read-out: IC50 (nM) Pi3Kδ
Excerpt: as §1, §2

[6] = tested on: pAKT; assay: Inhibition of AKT phosphorylation in B-lymphoma cell lines; format: cell-based; conditions: LY-1, LY-10, Daudi, JEKO, REC and MAVER cells; 48 hours
Experimental: LY-1, LY-10, Daudi, JEKO, REC and MAVER cells were incubated with desired concentrations of [compound A1] for 48 hours. Cells were lysed and pAKT was determined by Western Blotting. Bands were quantified using ImageJ and normalized to actin.

[7] = biological target: T2, PI3K alpha (Mus musculus, UniProt P42337); assay: PDGF induced Akt phosphorylation in 3T3 cells (PI3Kα selectivity); format: cell-based
T2 construct: endogenous in cells; host or cells: 3T3 fibroblasts
Experimental: The objective of this study was to determine the effect of Compound A1 on PI3Kα kinase mediated AktS473 phosphorylation in PDGF induced 3T3 fibroblasts. • 3T3 cells were treated with desired concentrations of the test compound for 15 min. 1 ml of 2× PDGF was added such that the final concentration was 20 ng/ml and incubated for 10 min. • Media was discarded and washed with 1 ml of ice-cold 1× PBS. • 250 μl of cell lysis buffer was added and incubated on ice for 30 min. • Samples were centrifuged and supernatant was collected and stored at −80° C. until analysis. • Samples were analyzed by Western Blotting using pAKT (S473) as the primary and anti-rabbit IgG-HRP as a secondary antibody. • Intensity of the bands was determined using ImageJ 1.42q (NIH, USA) and normalized to Actin (loading control). Data was plotted using GraphPad Prism (Version 5.02).

T2 sequence (P42337 whole entry): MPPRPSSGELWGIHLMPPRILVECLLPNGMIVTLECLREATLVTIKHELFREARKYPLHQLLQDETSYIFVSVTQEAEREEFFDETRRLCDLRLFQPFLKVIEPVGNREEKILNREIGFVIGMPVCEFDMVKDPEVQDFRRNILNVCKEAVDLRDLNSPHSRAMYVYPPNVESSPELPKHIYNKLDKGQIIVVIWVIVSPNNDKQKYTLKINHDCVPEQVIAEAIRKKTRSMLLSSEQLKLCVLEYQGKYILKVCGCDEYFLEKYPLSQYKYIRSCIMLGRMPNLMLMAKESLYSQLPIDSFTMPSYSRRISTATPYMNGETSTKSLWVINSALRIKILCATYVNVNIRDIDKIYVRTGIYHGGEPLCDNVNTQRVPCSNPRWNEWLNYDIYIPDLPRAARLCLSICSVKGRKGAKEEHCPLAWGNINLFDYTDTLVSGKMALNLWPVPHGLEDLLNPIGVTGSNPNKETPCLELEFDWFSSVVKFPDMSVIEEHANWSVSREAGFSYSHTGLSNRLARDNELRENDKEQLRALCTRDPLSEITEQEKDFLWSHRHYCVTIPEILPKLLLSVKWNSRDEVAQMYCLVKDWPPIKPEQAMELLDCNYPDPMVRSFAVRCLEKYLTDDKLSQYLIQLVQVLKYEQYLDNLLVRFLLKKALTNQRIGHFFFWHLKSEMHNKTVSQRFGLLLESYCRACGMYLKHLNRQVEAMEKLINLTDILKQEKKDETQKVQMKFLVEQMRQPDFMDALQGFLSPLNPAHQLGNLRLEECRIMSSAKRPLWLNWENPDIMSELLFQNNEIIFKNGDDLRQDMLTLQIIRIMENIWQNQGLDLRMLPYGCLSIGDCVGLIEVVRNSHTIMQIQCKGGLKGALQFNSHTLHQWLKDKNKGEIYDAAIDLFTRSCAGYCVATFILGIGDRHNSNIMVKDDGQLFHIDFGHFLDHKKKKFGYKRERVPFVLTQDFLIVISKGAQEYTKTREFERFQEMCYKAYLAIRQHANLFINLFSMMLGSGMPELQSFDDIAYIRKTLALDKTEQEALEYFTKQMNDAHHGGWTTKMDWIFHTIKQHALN
T2 sequence (P26450 whole entry partner): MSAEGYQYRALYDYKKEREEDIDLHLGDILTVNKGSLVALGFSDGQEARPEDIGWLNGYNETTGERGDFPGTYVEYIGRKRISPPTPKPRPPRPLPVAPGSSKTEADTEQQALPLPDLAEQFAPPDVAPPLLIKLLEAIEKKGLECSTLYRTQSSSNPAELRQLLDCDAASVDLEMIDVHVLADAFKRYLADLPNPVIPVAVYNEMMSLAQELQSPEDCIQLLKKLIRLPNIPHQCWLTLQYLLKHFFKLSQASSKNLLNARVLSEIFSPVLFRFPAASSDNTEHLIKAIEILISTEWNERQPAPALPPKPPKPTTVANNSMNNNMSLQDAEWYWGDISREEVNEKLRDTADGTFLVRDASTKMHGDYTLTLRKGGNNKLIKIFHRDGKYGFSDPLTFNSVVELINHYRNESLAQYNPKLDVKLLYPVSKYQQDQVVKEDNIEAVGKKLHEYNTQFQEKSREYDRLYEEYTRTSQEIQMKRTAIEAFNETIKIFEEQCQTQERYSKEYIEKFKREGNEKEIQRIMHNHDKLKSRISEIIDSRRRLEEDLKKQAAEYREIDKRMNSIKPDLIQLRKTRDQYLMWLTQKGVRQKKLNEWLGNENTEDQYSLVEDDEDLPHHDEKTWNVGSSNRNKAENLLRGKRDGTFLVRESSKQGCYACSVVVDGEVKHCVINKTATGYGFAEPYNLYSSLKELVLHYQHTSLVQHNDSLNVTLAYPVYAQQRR
Pi3K γ, sequence (P48736 whole entry, canonical isoform): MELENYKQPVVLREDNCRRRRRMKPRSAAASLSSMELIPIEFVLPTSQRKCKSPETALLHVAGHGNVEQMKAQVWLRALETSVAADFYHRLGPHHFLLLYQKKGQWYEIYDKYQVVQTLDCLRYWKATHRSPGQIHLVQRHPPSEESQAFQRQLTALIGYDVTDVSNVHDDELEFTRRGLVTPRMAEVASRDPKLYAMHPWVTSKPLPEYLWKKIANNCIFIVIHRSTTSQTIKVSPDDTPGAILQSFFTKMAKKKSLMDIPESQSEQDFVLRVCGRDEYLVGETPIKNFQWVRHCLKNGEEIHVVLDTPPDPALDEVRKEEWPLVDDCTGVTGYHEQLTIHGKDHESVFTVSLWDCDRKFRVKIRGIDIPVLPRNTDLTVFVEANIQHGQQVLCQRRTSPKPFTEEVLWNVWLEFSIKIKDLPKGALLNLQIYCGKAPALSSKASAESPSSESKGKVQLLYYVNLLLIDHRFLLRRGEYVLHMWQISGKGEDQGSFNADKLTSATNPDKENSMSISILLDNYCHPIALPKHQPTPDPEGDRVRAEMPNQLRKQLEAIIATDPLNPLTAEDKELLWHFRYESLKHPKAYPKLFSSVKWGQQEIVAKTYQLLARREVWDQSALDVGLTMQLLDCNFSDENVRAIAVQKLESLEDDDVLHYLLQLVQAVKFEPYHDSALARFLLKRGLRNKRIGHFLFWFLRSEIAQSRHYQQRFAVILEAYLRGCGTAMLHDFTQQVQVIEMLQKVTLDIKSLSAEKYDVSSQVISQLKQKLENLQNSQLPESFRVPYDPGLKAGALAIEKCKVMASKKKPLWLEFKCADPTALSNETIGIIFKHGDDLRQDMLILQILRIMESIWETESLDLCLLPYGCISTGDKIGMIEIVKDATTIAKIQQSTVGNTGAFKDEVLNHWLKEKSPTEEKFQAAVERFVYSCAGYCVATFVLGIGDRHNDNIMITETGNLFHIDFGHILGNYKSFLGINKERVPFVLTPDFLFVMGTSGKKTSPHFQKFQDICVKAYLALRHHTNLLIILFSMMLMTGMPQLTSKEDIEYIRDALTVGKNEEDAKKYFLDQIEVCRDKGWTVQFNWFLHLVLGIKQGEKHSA
PI3Kδ, sequence (O00329 whole entry, canonical isoform): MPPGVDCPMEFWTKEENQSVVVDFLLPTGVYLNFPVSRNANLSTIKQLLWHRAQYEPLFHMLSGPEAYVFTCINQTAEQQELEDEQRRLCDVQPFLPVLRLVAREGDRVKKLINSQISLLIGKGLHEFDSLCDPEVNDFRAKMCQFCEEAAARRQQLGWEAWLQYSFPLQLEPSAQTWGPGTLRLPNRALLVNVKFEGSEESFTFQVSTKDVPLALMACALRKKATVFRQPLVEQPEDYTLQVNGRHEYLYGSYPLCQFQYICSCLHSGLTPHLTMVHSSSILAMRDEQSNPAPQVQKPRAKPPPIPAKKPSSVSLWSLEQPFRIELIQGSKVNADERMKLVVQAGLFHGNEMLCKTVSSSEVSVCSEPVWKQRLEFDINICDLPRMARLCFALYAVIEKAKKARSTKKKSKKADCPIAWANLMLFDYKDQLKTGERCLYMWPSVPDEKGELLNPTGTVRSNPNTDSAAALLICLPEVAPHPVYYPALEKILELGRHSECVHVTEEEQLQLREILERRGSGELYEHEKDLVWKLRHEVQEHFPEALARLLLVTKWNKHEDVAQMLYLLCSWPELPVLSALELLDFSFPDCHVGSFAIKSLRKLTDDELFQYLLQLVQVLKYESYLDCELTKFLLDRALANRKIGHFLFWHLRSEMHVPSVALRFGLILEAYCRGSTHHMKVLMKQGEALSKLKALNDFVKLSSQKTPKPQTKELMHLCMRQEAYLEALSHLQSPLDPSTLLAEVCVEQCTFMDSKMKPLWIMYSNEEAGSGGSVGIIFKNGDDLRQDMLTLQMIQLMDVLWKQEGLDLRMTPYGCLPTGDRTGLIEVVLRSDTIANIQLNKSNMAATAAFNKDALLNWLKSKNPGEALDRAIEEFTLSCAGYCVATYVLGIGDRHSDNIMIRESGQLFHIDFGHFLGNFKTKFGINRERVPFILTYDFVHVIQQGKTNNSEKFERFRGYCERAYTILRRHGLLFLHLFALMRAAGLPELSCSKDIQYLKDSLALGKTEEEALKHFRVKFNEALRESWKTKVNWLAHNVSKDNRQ
PI3Kδ, sequence (P27986 whole entry partner, canonical isoform): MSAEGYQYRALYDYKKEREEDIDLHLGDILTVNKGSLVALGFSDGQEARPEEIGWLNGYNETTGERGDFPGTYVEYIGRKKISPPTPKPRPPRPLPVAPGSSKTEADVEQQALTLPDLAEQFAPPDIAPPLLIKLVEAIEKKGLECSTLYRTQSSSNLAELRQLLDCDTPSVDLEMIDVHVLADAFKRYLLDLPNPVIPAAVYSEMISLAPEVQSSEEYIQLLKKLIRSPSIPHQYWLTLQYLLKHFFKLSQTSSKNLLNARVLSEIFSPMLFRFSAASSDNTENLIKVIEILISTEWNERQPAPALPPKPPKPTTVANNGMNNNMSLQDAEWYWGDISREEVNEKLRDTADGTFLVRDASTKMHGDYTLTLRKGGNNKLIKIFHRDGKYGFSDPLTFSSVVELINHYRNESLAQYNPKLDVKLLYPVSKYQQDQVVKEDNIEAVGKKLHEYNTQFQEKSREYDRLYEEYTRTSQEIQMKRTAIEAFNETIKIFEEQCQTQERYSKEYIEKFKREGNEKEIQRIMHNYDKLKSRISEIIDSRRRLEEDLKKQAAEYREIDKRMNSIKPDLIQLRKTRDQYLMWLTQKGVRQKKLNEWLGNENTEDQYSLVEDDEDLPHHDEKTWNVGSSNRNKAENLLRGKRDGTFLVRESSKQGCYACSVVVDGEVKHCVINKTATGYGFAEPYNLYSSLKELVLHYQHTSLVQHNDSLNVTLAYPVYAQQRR

CC[C@H](Nc1ncnc2[nH]cnc12)c1oc2ccccc2c(=O)c1-c1cccc(F)c1 [Compound A1, (S)-2-(1-(9H-purin-6-ylamino)propyl)-3-(3-fluorophenyl)-4H-chromen-4-one]
airway hyperresponsiveness against methacholine challenge [1]: significant dose dependent reduction
eosinophil infiltration into the bronchoalveolar lavage fluid [1]: significant dose dependent reduction
IC50 [2]: > 4000 nM
IC50 [3]: 24.1 nM
caspase-3 activity [4]: dose-dependent induction
IC50 [5]: 23.8 nM
EC50 [6]: 20 to 200 nM
inhibition of PDGF induced AktS473 phosphorylation ([7]; at 10 μM, 3T3 fibroblasts): No inhibition
IC50 ([7]; read-out: Cellular IC50 PI3K alpha (PDGF induced pAKT in 3T3 fibroblasts)): > 10000 nM
